The values below come from US8987312B2, “Alpha-keto heterocycles as FAAH inhibitors” (The Scripps Research Institute, priority 2008, dated 2015).

The conditions of assay [1]: rats; cited from earlier work.
For assay [2] the following is noted: rats; cited from earlier work. This is another data set of the same source.
The conditions of assay [3]: rat; cited from earlier work.
For assay [4] the following is noted: rats; cited from earlier work. The source holds these as a separate data set.
Assay [5] concerns FAAH. The settings on record: cited from earlier work.
The conditions of assay [6]: CREAE mice; cited from earlier work.
Assay [7] concerns the target T1, recombinant human fatty acid amide hydrolase (Homo sapiens, UniProt O00519).
T1 construct: The full-length human FAAH (hFAAH) was expressed in COS-7 cells as described; expressed in transfected cells; host or cells: COS-7
T1 sequence (O00519 1-579): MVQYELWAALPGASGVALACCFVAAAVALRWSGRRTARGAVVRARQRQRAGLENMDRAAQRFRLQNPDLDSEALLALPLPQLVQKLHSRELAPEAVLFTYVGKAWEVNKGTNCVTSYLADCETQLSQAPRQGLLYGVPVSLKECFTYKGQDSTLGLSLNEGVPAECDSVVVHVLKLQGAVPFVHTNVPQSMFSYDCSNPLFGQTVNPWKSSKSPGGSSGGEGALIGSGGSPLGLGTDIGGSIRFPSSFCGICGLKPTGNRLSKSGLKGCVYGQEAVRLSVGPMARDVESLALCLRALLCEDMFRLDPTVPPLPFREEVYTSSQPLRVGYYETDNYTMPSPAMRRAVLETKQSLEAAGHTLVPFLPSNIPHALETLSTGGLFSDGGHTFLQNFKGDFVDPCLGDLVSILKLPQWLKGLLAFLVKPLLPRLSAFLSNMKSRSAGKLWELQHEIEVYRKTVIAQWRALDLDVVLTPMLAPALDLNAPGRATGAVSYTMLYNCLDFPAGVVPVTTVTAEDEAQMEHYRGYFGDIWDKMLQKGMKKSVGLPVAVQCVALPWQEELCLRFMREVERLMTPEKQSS
Put plainly: FAAH inhibition enzyme assay, human enzyme (COS-7 lysate). The class given is biochemical. The following applies: Table 3. The text has this:
(§1) The purified recombinant rFAAH was used in the inhibition assays unless otherwise indicated.
(§2) The ^14C-labeled oleamide (substrate) and oleic acid (product) were extracted with EtOAc and analyzed by TLC.

In another assay the target is T2, KIAA1363 (Mus musculus, UniProt Q8BLF1).
T2 construct: with FP-Rh in brain and heart membrane proteome; from tissue; host or cells: brain and heart membrane proteome
T2 sequence (Q8BLF1 1-408): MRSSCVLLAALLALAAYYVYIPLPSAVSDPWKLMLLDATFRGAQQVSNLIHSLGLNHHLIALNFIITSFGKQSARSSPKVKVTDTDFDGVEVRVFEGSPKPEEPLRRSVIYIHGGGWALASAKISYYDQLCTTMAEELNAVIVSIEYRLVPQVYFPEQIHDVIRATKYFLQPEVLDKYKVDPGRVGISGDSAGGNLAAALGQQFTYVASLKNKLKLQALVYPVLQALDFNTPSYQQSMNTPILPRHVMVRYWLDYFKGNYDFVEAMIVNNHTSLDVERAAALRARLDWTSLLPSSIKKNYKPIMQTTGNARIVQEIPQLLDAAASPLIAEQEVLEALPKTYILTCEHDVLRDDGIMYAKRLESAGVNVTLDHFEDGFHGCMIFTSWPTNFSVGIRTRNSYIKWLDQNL
Put plainly: Activity based protein profiling (proteome-wide selectivity screening, FP-Rh), KIAA1363. The class given is biochemical. The settings on record: Table 4; for IC50: activity based protein profiling; for KIAA1363 selectivity (value in parentheses): ratio KIAA1363 IC50 / FAAH IC50 (fold selectivity for FAAH). The source says:
(§3) Enzyme targets such as FAAH, KIAA1363, and TGH are labeled at the left margin.

The target of assay [8] is T3, FAAH (Mus musculus, UniProt O08914).
T3 construct: with FP-Rh in brain and heart membrane proteome; from tissue; host or cells: brain and heart membrane proteome
T3 sequence (O08914 1-579): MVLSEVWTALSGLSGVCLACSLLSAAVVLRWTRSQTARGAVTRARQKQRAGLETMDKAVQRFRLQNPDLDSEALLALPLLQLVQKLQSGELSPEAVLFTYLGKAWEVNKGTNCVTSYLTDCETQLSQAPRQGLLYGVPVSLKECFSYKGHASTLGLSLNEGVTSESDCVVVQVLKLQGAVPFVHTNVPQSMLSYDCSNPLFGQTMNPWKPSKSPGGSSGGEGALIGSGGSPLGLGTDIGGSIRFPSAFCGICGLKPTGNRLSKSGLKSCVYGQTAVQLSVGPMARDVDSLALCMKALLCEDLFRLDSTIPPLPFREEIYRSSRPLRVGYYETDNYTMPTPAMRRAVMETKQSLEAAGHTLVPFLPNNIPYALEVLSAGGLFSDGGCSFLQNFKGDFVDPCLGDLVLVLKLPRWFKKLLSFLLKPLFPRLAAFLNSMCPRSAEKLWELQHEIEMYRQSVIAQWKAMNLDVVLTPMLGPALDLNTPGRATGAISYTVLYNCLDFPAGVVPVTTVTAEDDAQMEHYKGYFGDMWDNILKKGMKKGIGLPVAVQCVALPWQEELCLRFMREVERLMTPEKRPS
Put plainly: Activity based protein profiling (proteome-wide selectivity screening, FP-Rh), FAAH. The class given is biochemical. The following applies: Table 4.
Source text: as §3

The target in assay [9] is T4, purified recombinant rat FAAH (Rattus norvegicus, UniProt P97612).
T4 construct: The truncated rat FAAH (rFAAH) was expressed in E. coli and purified as described; made in house; host or cells: Escherichia coli
T4 sequence (P97612 30-579 limits assumed): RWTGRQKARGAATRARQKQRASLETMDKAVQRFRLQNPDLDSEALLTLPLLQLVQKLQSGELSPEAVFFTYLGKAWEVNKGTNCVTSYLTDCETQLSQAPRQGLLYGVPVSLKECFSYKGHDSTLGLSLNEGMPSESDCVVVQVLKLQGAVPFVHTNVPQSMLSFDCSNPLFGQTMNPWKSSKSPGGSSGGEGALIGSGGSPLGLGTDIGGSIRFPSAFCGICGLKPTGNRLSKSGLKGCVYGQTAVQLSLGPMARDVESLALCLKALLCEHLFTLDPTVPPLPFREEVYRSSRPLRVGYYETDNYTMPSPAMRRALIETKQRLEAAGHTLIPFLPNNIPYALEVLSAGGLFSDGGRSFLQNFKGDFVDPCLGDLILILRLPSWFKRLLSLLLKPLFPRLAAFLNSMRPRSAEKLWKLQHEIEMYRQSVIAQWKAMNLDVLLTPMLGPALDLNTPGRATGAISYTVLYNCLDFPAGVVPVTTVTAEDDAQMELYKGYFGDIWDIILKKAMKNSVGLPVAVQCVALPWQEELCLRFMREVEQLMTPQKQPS
Put plainly: FAAH inhibition enzyme assay (14C-oleamide hydrolysis, Dixon plot), rat enzyme. The class given is biochemical.
Source text: as §1, §2

Assay [10] has as its target T5, triacylglycerol hydrolase (TGH) (Mus musculus, UniProt Q8VCT4).
T5 construct: with FP-Rh in brain and heart membrane proteome; from tissue; host or cells: brain and heart membrane proteome
T5 sequence (Q8VCT4 19-565): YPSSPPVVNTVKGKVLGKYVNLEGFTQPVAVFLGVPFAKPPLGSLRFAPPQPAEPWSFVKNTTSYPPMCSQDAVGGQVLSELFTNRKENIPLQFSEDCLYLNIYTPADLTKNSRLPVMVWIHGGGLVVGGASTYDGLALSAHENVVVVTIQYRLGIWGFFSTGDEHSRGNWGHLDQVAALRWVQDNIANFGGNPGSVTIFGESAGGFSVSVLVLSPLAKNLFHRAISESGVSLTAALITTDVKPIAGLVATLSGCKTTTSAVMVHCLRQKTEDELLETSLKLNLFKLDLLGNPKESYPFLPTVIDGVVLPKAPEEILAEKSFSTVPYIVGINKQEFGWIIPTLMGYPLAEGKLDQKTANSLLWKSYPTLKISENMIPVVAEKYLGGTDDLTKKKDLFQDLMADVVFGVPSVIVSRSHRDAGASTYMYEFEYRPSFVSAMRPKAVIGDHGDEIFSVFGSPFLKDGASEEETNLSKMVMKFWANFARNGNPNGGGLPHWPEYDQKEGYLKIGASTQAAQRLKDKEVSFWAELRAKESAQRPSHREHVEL
Put plainly: Activity based protein profiling (proteome-wide selectivity screening, FP-Rh), TGH. The settings on record: Table 4; for IC50: activity based protein profiling; for TGH selectivity (value in parentheses): ratio TGH IC50 / FAAH IC50 (fold selectivity for FAAH). The class given is biochemical.
Source text: as §3

The conditions of assay [11]: rats; cited from earlier work. This is another data set of the same source.

Where two headings read alike, the source gives them in different places.

With `Cc1nc(-c2ccccc2)c(-c2ccccc2)n1CCCCCCNC(=O)Oc1ccccc1F` [BMS-1], the analgesic effect entry in [1] and in assay [2] was “analgesic effect” in each case.

On to `O=C(CCCCCCc1ccccc1)c1ncc(-c2ccccn2)o1` [OL-135], for which the “analgesic efficacy / activity, hot plate” value in assay [3] is “analgesic activity”. Besides, in [4], the “analgesic activity, tail emersion” value was “analgesic activity”. The “FAAH inhibition (in words)” value in the assay with FAAH [5] was “potent inhibitor”.

In the case of `CCCCCCCCCCCCCCCCS(=O)(=O)F` [AM374], in assay [6], the spasticity entry is “significantly reduce spasticity”.

Turning to `O=C(O)c1cccc(-c2nc(C(=O)CCCCCCc3ccccc3)no2)n1` [10g, 6-(3-(7-Phenylheptanoyl)-1,2,4-oxadiazol-5-yl)-picolinic Acid], the inhibitory constant (Ki) (as a rule, a dissociation constant, usually derived from enzyme kinetics or from competition with a known ligand) in assay [7] is 0.11 µM; in [9] (Table 2, rat FAAH, pH 9 assay conditions, read-out: Ki), 0.053 µM; in [9] (Table 3, rat FAAH, read-out: Ki, μM (rat)), 0.053 µM; in assay [9] (Table 4, read-out: FAAH Ki), 0.053 µM. For the same compound, the IC50 (as a rule, the point on the concentration scale where inhibition reaches its midpoint) was greater than 100 µM on KIAA1363, 70 nM on FAAH [8] and greater than 100 µM in assay [10]. The “KIAA1363 selectivity (value in parentheses)” value on KIAA1363 is given as greater than 1400. Besides, the “TGH selectivity (value in parentheses)” value in assay [10] is on record as greater than 1400.

`NC(=O)c1cccc(-c2cccc(OC(=O)NC3CCCCC3)c2)c1` [URB-597]: in [3], the “analgesic efficacy / activity, hot plate” value is “analgesic efficacy”. The “efficacy in model of anxiety” value in [11] is “efficacy”.

As to `O=C(O)c1cccc(-c2cnc(C(=O)CCCCCCc3ccccc3)o2)n1` [7g], the Ki in [7] is 0.026 µM; in [9] (pH=7.4 (physiological pH), read-out: Ki), 0.0103 µM; in [9] (pH=8, read-out: Ki), 0.0145 µM. Also, the concentration for half-maximal inhibition (IC50) at KIAA1363 is greater than 100 µM; at FAAH [8], 100 nM; in assay [10] it was greater than 100 µM. The “KIAA1363 selectivity (value in parentheses)” value on KIAA1363 was greater than 1000. For the same compound, in [10], the “TGH selectivity (value in parentheses)” value is on record as greater than 1000.
